# Values of other authors as cited in patent US8241397B2, “Adsorptive gas sampler using ionic nano-droplets” (Honeywell International Inc., priority 2008, dated 2012).
# Details: water uptake
row,SMILES,Solubility of solvent H2O in ionic liquid (% w/w)
1,CCCCCCn1cc[n+](C)c1.O=S(=O)([N-]S(=O)(=O)C(F)(F)F)C(F)(F)F [[C6MIM][TF2N]],0.88
2,CCCCCCCCn1cc[n+](C)c1.O=S(=O)([N-]S(=O)(=O)C(F)(F)F)C(F)(F)F [[C8MIM][TF2N]],0.74
3,"CCCCn1cc[n+](C)c1.O=S(=O)([N-]S(=O)(=O)C(F)(F)F)C(F)(F)F [[C4MIM][TF2N], [C4MIM] bis(trifluoromethylsulfonyl) imide]",1.17
